Columns and labels:
[1] = dichlorvos 1%, one patient; cited from earlier work
Demodex mites = experiment: in vitro Demodex survival time assay
Procedure: FIG. 4 summarizes the activity of 10% chloroquine in water relative to a water control on activity against Demodex mites in an in vitro assay, with an LT50 of 31.6 hours for chloroquine compared to 44.8 hours for the water control, illustrating the inactivation effect of chloroquine on Demodex.
Example 4: In vitro efficacy and mite lifetimes: Relative efficacy of various formulations are evaluated with a demodex survival time experiments. FIG. 3 tabulates demodex survival time, expressed in terms of LT50 (time at which 50% of demodex mites are killed) and/or average minutes to death for various active agents.

Row | Structure (SMILES) | remission of Papulopostular Rosacea (PPR) [1] | LT50 (time at which 50% of demodex mites are killed) (Demodex mites; 10% chloroquine in water, water control 44.8 hours, FIG. 4) [h] | activity against Demodex mites (Demodex mites; in vitro assay, FIG. 3)
1 | COP(=O)(OC)OC=C(Cl)Cl [dichlorvos] | complete and continued remission | – | –
2 | CCN(CC)CCCC(C)Nc1ccnc2cc(Cl)ccc12 (stereo not drawn) [chloroquine] | – | 31.6 | has activity against Demodex mites

From patent US20210069176A1, “Treating Autoimmune Disorders with Chloroquine and/or Hydroxychloroquine” (Attillaps Holdings, priority 2018, published 2021)
